≈ marks a conversion by molar mass, not a printed value. Calls of active or inactive are those of the source. No cut-off for these calls is given here.
Columns and labels:
Staphylococcus aureus [1] = assay: Antibacterial activity against methicillin resistant Staphylococcus aureus ATCC 43300 measured after 18 hrs; assay type: functional
Escherichia coli [2] = assay: Antibacterial activity against Escherichia coli ATCC 25922 measured after 18 hrs; assay type: functional
Klebsiella pneumoniae [3] = assay: Antibacterial activity against Klebsiella pneumoniae ATCC 700603 measured after 18 hrs; assay type: functional
Acinetobacter baumannii [4] = assay: Antibacterial activity against Acinetobacter baumannii ATCC 19606 measured after 18 hrs; assay type: functional; settings: ATCC 19606 = CIP 70.34 = JCM 6841
Pseudomonas aeruginosa [5] = assay: Antibacterial activity against Pseudomonas aeruginosa ATCC 27853 measured after 18 hrs; assay type: functional
Candida albicans [6] = assay: Antifungal activity against Candida albicans ATCC 90028 measured after 24 hrs by resazurin dye based assay; assay type: functional
Cryptococcus neoformans [7] = assay: Antifungal activity against Cryptococcus neoformans ATCC 208821 measured after 24 hrs by resazurin dye based assay; assay type: functional
Staphylococcus aureus [8] = assay: Antibacterial activity against methicillin resistant Staphylococcus aureus ATCC 43300 at 32 ug/ml measured after 18 hrs; assay type: functional
Escherichia coli [9] = assay: Antibacterial activity against Escherichia coli ATCC 25922 at 32 ug/ml measured after 18 hrs; assay type: functional
Klebsiella pneumoniae [10] = assay: Antibacterial activity against Klebsiella pneumoniae ATCC 700603 at 32 ug/ml measured after 18 hrs; assay type: functional
Acinetobacter baumannii [11] = assay: Antibacterial activity against Acinetobacter baumannii ATCC 19606 at 32 ug/ml measured after 18 hrs; assay type: functional, ATCC 19606 = CIP 70.34 = JCM 6841
Pseudomonas aeruginosa [12] = assay: Antibacterial activity against Pseudomonas aeruginosa ATCC 27853 at 32 ug/ml measured after 18 hrs; assay type: functional
Candida albicans [13] = assay: Antifungal activity against Candida albicans ATCC 90028 at 32 ug/ml measured after 24 hrs by resazurin dye based assay; assay type: functional
Cryptococcus neoformans [14] = assay: Antifungal activity against Cryptococcus neoformans ATCC 208821 at 32 ug/ml measured after 24 hrs by resazurin dye based assay; assay type: functional
[15] = Cytotoxicity against HEK293 cells measured after 20 hrs by resazurin dye based fluorescence assay; assay type: cell-based; settings: human
[16] = ATCC 19606 = CIP 70.34 = JCM 6841, dose 32.0 µg/ml

Compound | MIC (Staphylococcus aureus [1]) | MIC (Escherichia coli [2]) | MIC (Klebsiella pneumoniae [3]) | MIC (Acinetobacter baumannii [4]) | MIC (Pseudomonas aeruginosa [5]) | MIC (Candida albicans [6]) | MIC (Cryptococcus neoformans [7]) | Activity (Staphylococcus aureus [8]; dose 32 µg/ml) | Activity (Escherichia coli [9]; dose 32 µg/ml) | Activity (Klebsiella pneumoniae [10]; dose 32 µg/ml) | Activity (Acinetobacter baumannii [11]; dose 32 µg/ml) | Activity (Pseudomonas aeruginosa [12]; dose 32 µg/ml) | Activity (Candida albicans [13]; dose 32 µg/ml) | Activity (Cryptococcus neoformans [14]; dose 32 µg/ml) | CC50 at 20 h [15] | further results
OC1(c2ccc(-c3ccccc3)cc2)C[N+](c2ccc(Br)cc2)=C2CCCCCN21.[Br-] (stereo unspecified) | > 32 mg/L | > 32 mg/L | > 32 mg/L | > 32 mg/L | > 32 mg/L | > 32 mg/L | > 32 mg/L | >80% | >80% | >80% | >80% | >80% | >80% | >80% | 6.1 mg/L | 
CC/C(=C(\c1ccccc1)c1ccc(OCCN(C)C)cc1)c1ccccc1 [TAMOXIFEN] |  |  |  |  |  |  |  |  |  |  |  |  |  |  | 9 mg/L (≈ 24.2 µM) | 
CCc1ccc([N+]2=C3CCCCCN3C(O)(c3ccc(-c4ccccc4)cc3)C2)cc1.[Br-] (stereo unspecified) | 8 mg/L | > 32 mg/L | > 32 mg/L | > 32 mg/L | 32 mg/L | > 32 mg/L | 32 mg/L | >80% | >80% | >80% | >80% | >80% | >80% | >80% | 2.2 mg/L | 
CCOc1ccc(-[n+]2cc(-c3ccc(-c4ccccc4)cc3)n3c2CCCCC3)cc1.[Br-] | 4 mg/L | > 32 mg/L | > 32 mg/L | > 32 mg/L | 32 mg/L | 8 mg/L | 16 mg/L | >80% | >80% | >80% | >80% | >80% | >80% | >80% | 1.7 mg/L | 
COc1ccc([N+]2=C3CCCCCN3C(O)(c3ccc(-c4ccccc4)cc3)C2)c(OC)c1.[Br-] (stereo unspecified) | 8 mg/L | > 32 mg/L | > 32 mg/L | > 32 mg/L | 32 mg/L | > 32 mg/L | 32 mg/L | >80% | >80% | >80% | >80% | >80% | >80% | >80% | 2.4 mg/L | 
OC1(c2ccc(-c3ccccc3)cc2)C[N+](c2ccc(Cl)cc2)=C2CCCCCN21.[Br-] (stereo unspecified) | 16 mg/L | > 32 mg/L | > 32 mg/L | > 32 mg/L | 32 mg/L | > 32 mg/L | > 32 mg/L | >80% | >80% | >80% | >80% | >80% | >80% | >80% | 3.9 mg/L | 
COc1ccccc1[N+]1=C2CCCCCN2C(O)(c2ccc(-c3ccccc3)cc2)C1.[Br-] (stereo unspecified) | 16 mg/L | > 32 mg/L | > 32 mg/L | > 32 mg/L | > 32 mg/L | 32 mg/L | 8 mg/L | >80% | >80% | >80% | >80% | >80% | >80% | >80% | 2.2 mg/L | 
OC(Cn1cncn1)(Cn1cncn1)c1ccc(F)cc1F [FLUCONAZOLE] |  |  |  |  |  | 0.125 mg/L (≈ 0.408 µM) | 8 mg/L (≈ 26.1 µM) |  |  |  |  |  |  |  |  | 
OC1(c2ccc(-c3ccccc3)cc2)C[N+](c2ccc(OC(F)F)cc2)=C2CCCCCN21.[Br-] (stereo unspecified) | 16 mg/L | > 32 mg/L | > 32 mg/L | > 32 mg/L | > 32 mg/L | > 32 mg/L | > 32 mg/L | >80% | >80% | >80% | >80% | >80% | >80% | >80% | 5.8 mg/L | 
COc1ccc([N+]2=C3CCCCCN3C(O)(c3ccc(-c4ccccc4)cc3)C2)cc1.[Br-] (stereo unspecified) | 16 mg/L | > 32 mg/L | > 32 mg/L | > 32 mg/L | > 32 mg/L | > 32 mg/L | 32 mg/L | >80% | >80% | >80% | >80% | >80% | >80% | >80% | 2.6 mg/L | 
Cc1ccc(-[n+]2cc(-c3ccc(-c4ccccc4)cc3)n3c2CCCCC3)cc1.[Br-] | 8 mg/L | > 32 mg/L | > 32 mg/L | > 32 mg/L | > 32 mg/L | 8 mg/L | 16 mg/L | >80% | >80% | >80% | >80% | >80% | >80% | >80% | 2.1 mg/L | 
CCOc1ccc([N+]2=C3CCCCCN3C(O)(c3ccc(-c4ccccc4)cc3)C2)cc1.[Br-] (stereo unspecified) | 16 mg/L | > 32 mg/L | > 32 mg/L | > 32 mg/L | > 32 mg/L | > 32 mg/L | 32 mg/L | >80% | >80% | >80% | >80% | >80% | >80% | >80% | 2.4 mg/L | 
Cc1ccc([N+]2=C3CCCCCN3C(O)(c3ccc(-c4ccccc4)cc3)C2)cc1.[Br-] (stereo unspecified) | 16 mg/L | > 32 mg/L | > 32 mg/L | > 32 mg/L | > 32 mg/L | > 32 mg/L | > 32 mg/L | >80% | >80% | >80% | >80% | >80% | >80% | >80% | 2.7 mg/L | 
OC1(c2ccc(-c3ccccc3)cc2)C[N+](c2ccc3c(c2)OCO3)=C2CCCCCN21.[Br-] (stereo unspecified) | 32 mg/L | > 32 mg/L | > 32 mg/L | > 32 mg/L | > 32 mg/L | > 32 mg/L | > 32 mg/L | >80% | >80% | >80% | >80% | >80% | >80% | >80% | 4.5 mg/L | 
COc1ccc([N+]2=C3CCCCN3C(O)(c3ccc(-c4ccccc4)cc3)C2)cc1 (stereo unspecified) |  |  |  |  |  |  |  |  |  |  |  |  |  |  |  | Activity (Staphylococcus aureus [8]; dose 32.0 µg/ml): inactive; Activity (Escherichia coli [9]; dose 32.0 µg/ml): inactive; Activity (Klebsiella pneumoniae [10]; dose 32.0 µg/ml): inactive; Activity (Acinetobacter baumannii [11]; [16]): inactive; Activity (Pseudomonas aeruginosa [12]; dose 32.0 µg/ml): inactive; Activity (Candida albicans [13]; dose 32.0 µg/ml): inactive; Activity (Cryptococcus neoformans [14]; dose 32.0 µg/ml): inactive
OC1(c2ccc(-c3ccccc3)cc2)C[N+](c2ccccc2)=C2CCCCCN21.[Br-] (stereo unspecified) | 32 mg/L | > 32 mg/L | > 32 mg/L | > 32 mg/L | > 32 mg/L | > 32 mg/L | > 32 mg/L | >80% | >80% | >80% | >80% | >80% | >80% | >80% | 2.3 mg/L | 
COc1ccc([N+]2=C3COCCN3C(O)(c3ccc(-c4ccccc4)cc3)C2)cc1 (stereo unspecified) |  |  |  |  |  |  |  |  |  |  |  |  |  |  |  | Activity (Staphylococcus aureus [8]; dose 32.0 µg/ml): inactive; Activity (Escherichia coli [9]; dose 32.0 µg/ml): inactive; Activity (Klebsiella pneumoniae [10]; dose 32.0 µg/ml): inactive; Activity (Acinetobacter baumannii [11]; [16]): inactive; Activity (Pseudomonas aeruginosa [12]; dose 32.0 µg/ml): inactive; Activity (Candida albicans [13]; dose 32.0 µg/ml): inactive; Activity (Cryptococcus neoformans [14]; dose 32.0 µg/ml): inactive
CCc1ccc(-[n+]2cc(-c3ccc(-c4ccccc4)cc3)n3c2CCCCC3)cc1.[Br-] | 4 mg/L | > 32 mg/L | > 32 mg/L | > 32 mg/L | 32 mg/L | 4 mg/L | 8 mg/L | >80% | >80% | >80% | >80% | >80% | >80% | >80% | 1.4 mg/L | 
COLISTIN |  | 0.125 mg/L | 0.25 mg/L | 0.25 mg/L | 0.25 mg/L |  |  |  |  |  |  |  |  |  |  | 

Reference: ChEMBL document CHEMBL4765364, “Synthesis, antibacterial and antifungal activity of new 3-biphenyl-3H-Imidazo[1,2-a]azepin-1-ium bromides” (Eur J Med Chem, 2020)
